Measured values: patent publication US7312246B2, “Proteomimetic compounds and methods” (Yale University, priority 2001, dated 2007)
pIC50, pKd: −log10 of the molar value.

What was measured:
calmodulin (CaM) [1] = molecular target: T1, calmodulin (CaM) (Homo sapiens, UniProt P0DP23); experiment: Antagonism of CaM activation of phosphodiesterase (PDE), monitored by hydrolysis of mant-cGMP; assay type: biochemical; conditions: for pIC50: 13.9 nM CaM, 50 mu/ml PDE, 8 μM mant-cGMP, pH 7.0, read-out: IC50, inhibition of CaM activation of PDE
Method: 13.9 nM CaM, 50 mu/ml PDE, 8 μM mant-cGMP, 10 mM Mops, 0.5 mM MgCl2, 90 mM KCl, 0.73 mM CaCl2, 0.2% DMSO, pH 7.0.

Bcl-xL = Bcl-xL (Homo sapiens, UniProt Q07817); experiment: Fluorescence polarization assay: displacement of fluorescein-labeled 16-mer Bak-peptide from Bcl-xL; assay type: binding; conditions: for binding affinity for Bcl-xL (in words): compared with m
Sequence of Bcl-xL (Q07817 whole entry): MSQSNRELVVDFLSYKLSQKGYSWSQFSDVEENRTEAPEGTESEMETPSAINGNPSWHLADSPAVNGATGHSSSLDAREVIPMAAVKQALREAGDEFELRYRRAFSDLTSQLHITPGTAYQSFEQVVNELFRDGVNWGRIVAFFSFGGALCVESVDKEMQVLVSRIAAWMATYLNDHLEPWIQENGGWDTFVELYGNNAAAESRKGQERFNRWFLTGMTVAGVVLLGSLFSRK
Method: Based on these structural requirements we designed a series of terphenyl molecules (k-n) containing alkyl or aryl substituents on the three ortho positions (to mimic the key i, i+3, and i+7 groups in Bak or Bad) and carboxylic acid substituents on either end (to mimic the additional ion pair) (FIG. 17). The binding affinity of these molecules for Bcl-xL was assessed by a fluorescence polarization assay using fluoresceine-labeled 16-mer Bak-peptide. Displacement of this probe through competitive binding of the terphenyl into the hydrophobic cleft of BCl-xL would lead to a decrease in its fluorescence polarization which in turn could be related to the known affinity of the 16-mer Bak/Bcl-xL complex.

Solubility in buffer = assay type: physicochemical; conditions: buffer with <1% DMSO
Source text: For synthetic simplicity we changed the indole of Trp800 to phenyl and removed the hydroxyl of Thr803. Using Negishi couplings of differently substituted phenyltriflates, we prepared terphenyl a as a mimic of the calmodulin binding face of smMLCK.

[2] = molecular target: T2, gp41 core model (N36/C34 six helix bundle) (Human immunodeficiency virus type 1 group M subtype B, UniProt P04578); assay type: binding, HIV-1; conditions: 10 μM gp41 core model, 50 mM PBS, 150 mM NaCl, pH 7.0, 4° C.
T2 construct: two peptides (N36 and C34), from the N and C heptad repeat regions of gp41; purchased HHMI Biopolymer/Keck Foundation Biotechnology Resource Center, Yale University School of Medicine; host or cells: synthetic peptides
T2 sequence (P04578 546-581): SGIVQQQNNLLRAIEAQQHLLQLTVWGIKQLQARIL
Source text: Spectra were corrected by the subtraction of a blank corresponding to the solvent composition of each sample.

calmodulin (CaM) [3] = molecular target: T1, calmodulin (CaM); experiment: Avidin-based affinity resin derivatized with biotinylated CaM: retention of compound; assay type: binding
Source text: Discrete complex formation to CaM was indicated by the release of a from the column, as monitored by HPLC, on elution with […] biotin. […] To amplify the binding event between CaM and a, an enzymatic assay was also employed.

calmodulin (CaM) [4] = molecular target: T1, calmodulin (CaM); experiment: Polyacrylamide gel permeation chromatography (6 kD cutoff) with and without CaM; assay type: binding; conditions: 70 μM in buffer

Compound: CCc1cc(-c2ccc(OCC(=O)O)cc2C(C)C)ccc1-c1cccc(Cc2cccc3ccccc23)c1 [b, (2′-Ethyl-2″-isopropyl-3-naphthalen-1-ylmethyl-[1,1′:4′,1″]terphenyl-4″-yloxy)-acetic acid]
- pIC50 (calmodulin (CaM) [1]): 8.05
- potency, fold improvement over RS20 (calmodulin (CaM) [1]; relative to helical peptide RS20): 8 fold

Compound: CC(C)Cc1cc(-c2ccc(-c3ccc(CCC(=O)O)cc3CC(C)C)cc2Cc2ccccc2)ccc1OCC(=O)O [l, 3-(3′-Benzyl-4″-(carboxymethoxy)-2,3″-diisobutyl-1,1′4″1″-terphenyl-4-yl)propanoic acid]
- binding affinity for Bcl-xL (in words) (Bcl-xL): less binding affinity

Compound: CC(C)Cc1cc(CCC(=O)O)ccc1-c1ccc(-c2ccc(OCC(=O)O)c(Cc3cccc4ccccc34)c2CC(C)C)cc1 [n, 3-(4-(Carboxymethoxy)-2,2″-diisobutyl-3-naphthalen-1-ylmethyl-[1,1′:4′,1″]-terphenyl-4″-yl)propionic acid]
- binding affinity for Bcl-xL (in words) (Bcl-xL): significant loss in binding affinity

Compound: CC(C)Cc1cc(-c2ccc(-c3ccc(CCC(=O)O)cc3CC(C)C)cc2Cc2cccc3ccccc23)ccc1OCC(=O)O [m, 3-(4-(Carboxymethoxy)-3,2″-diisobutyl-2′-naphthalen-1-ylmethyl-[1,1′:4′,1″]-terphenyl-4″-yl)propionic acid]
- pKd (Bcl-xL; related to known affinity of 16-mer Bak/Bcl-xL complex, read-out: KD-value, binding to Bcl-xL): 6.94

Compound: CCc1cc(-c2ccc(OCC(=O)O)cc2C(C)C)ccc1-c1cccc(Cc2ccccc2)c1.N [48.NH4, Ammonium (3-benzyl-2′-ethyl-2″-isopropyl-[1,1′:4′,1″]terphenyl-4″-yloxy)-acetate]
- solubility in buffer (Solubility in buffer): surprisingly soluble in buffer with <1% DMSO

Compound: Bis methyl 3-(1,1′:4′,1″-terphenyl-4,4″-yl)propanoic acid
- effect on CD spectrum of gp41 core model (helicity of the hexameric bundle) [2]: little effect on the protein CD spectrum even at high concentrations

Compound: CCc1cc(-c2ccc(OCC(=O)O)cc2C(C)C)ccc1-c1cccc(Cc2ccccc2)c1 [a, (3-Benzyl-2′-ethyl-2″-isopropyl-[1,1′:4′,1″]terphenyl-4″-yloxy)-acetic acid]
- retention on avidin affinity resin derivatized with biotinylated CaM (calmodulin (CaM) [3]; CaM-derivatized resin): retention of the terphenyl on the column
- retention on underivatized avidin resin (control experiment) (calmodulin (CaM) [3]; underivatized avidin resin): no observable retention
- pIC50 (calmodulin (CaM) [1]): 6.10
- inhibitory potency, fold less than RS20 (calmodulin (CaM) [1]; relative to 20-mer peptide RS20): 10 fold

Compound: CC(C)Cc1cc(-c2ccc(-c3ccc(CCCN)cc3CC(C)C)cc2C(C)C)ccc1OCCN.Cl.Cl [g, 3-[4″-(2-aminoethoxy)-2,3″-diisobutyl-3′-isopropyl-1,1′:4′,1″-terphenyl-4-yl]propan-1-amine dihydrochloride]
- behaviour on gel permeation column, compound alone (calmodulin (CaM) [4]; alone): retained on the column
- behaviour on gel permeation column, mixed with one equivalent of CaM (calmodulin (CaM) [4]; one equivalent of CaM): passed through
- effect on CD spectrum of gp41 core model (helicity of the hexameric bundle) [2]: little effect on the protein CD spectrum even at high concentrations

Compound: CCc1cc(-c2ccc(OCC(=O)O)cc2C(C)C)ccc1-c1cccc(Cc2ccc3ccccc3c2)c1 [c, (2′-Ethyl-2″-isopropyl-3-naphthalen-2-ylmethyl-[1,1′:4′,1″]terphenyl-4″-yloxy)-acetic acid]
- pIC50 (calmodulin (CaM) [1]): 7.70

Compound: CC(C)Cc1cc(CCC(=O)O)ccc1-c1ccc(-c2ccc(OCC(=O)O)c(Cc3ccccc3)c2)c(Cc2ccccc2)c1 [j, 3-(3′,3″-dibenzyl-4″-(carboxymethoxy)-2-isobutyl-1,1′:4′,1″-terphenyl-4-yl)propanoic acid]
- effect on CD spectrum of gp41 core model (helicity of the hexameric bundle) [2]: modest enhancement in activity compared to f

Compound: O=C(O)CCc1ccc(-c2ccc(OCC(=O)O)cc2)cc1 [i, 3-[4′-(carboxymethoxy)-1,1′-biphenyl-4-yl)propanoic acid]
- effect on CD spectrum of gp41 core model (helicity of the hexameric bundle) [2]: little effect on the protein CD spectrum even at high concentrations
